# From publication PMC12785453, “Oral Fluid Concentrations and Pharmacological Effects of Clephedrone and Methylone in Humans” (International Journal of Molecular Sciences, 2025)
# How the values were obtained:
# healthy volunteers [1] = assay: Subjective effects, ARCI short form, clephedrone study; format: in vivo, humans; conditions: 100 or 150 mg oral, n=8
# From the text: (§1) The study evaluating the acute effects of clephedrone was designed as a non-controlled, prospective, observational, and naturalistic study. The procedures and evaluations included in this study have been described in previous studies evaluating other synthetic cathinones (mephedrone, methylone, alpha-PVP, NEP, HEXEN), phenethylamines (2C-B and 2C-E), or synthetic cannabinoids (JWH-122, JWH-210, UR-144).
# (§2) This study consisted of one experimental session in which participants (N = 8; 6 women, 2 men) selected their oral dose of clephedrone based on their drug use experience and preferences. According to their dose selection, 3 women and 1 man ingested 100 mg of clephedrone, while the remaining 3 women and 1 man opted for a higher dose of 150 mg. […] Participants were recruited by word of mouth by the harm reduction organization Energy Control in Barcelona (Associació Benestar i Desenvolupament, ABD).
# (§3) Subjective effects were evaluated with visual analog scales (VAS), the short form of the Addiction Research Center Inventory (ARCI), and the Evaluation of Subjective Effects of Substances with Abuse Potential questionnaire (VESSPA-SSE). In addition, the Sensitivity to Drug Reinforcement Questionnaire (SDRQ) and a pharmacological identification class questionnaire were used in the controlled study administering methylone.
# The validated ARCI 49-item short form was used to evaluate and discriminate the subjective following five subscales that correspond to different classes of drugs of abuse: pentobarbital-chlorpromazine-alcohol group (PCAG) is susceptible to sedative effects, morphine-benzedrine group (MBG) is susceptible to euphoric effects, lysergic acid diethylamide (LSD) is susceptible to dysphoria and somatic symptoms, benzedrine (BG) is susceptible to intellectual efficiency and energy, and amphetamine (A) is susceptible to amphetamine-like effects.
# (§4) Participants included in the naturalistic clephedrone study completed VAS at baseline, 0.50, 1, 1.5, 2, 3, 4, and 5 h, and ARCI and VESSPA at baseline, 1, 2, 3, 4, and 5 h after self-administering clephedrone. In the controlled study, VAS was performed at baseline and 0.25, 0.50, 0.75, 1, 1.5, 2, 3, 4, 6, 8, 10, and 24 h, and ARCI and VESSPA at baseline and 1, 2, 3, 4, 6, 8, and 10 h after administering methylone. Participants completed SDRQ and VAS sexual desire and arousal at baseline, 1 and 10 h, and the pharmacological class identification questionnaire at 8 h.
# (§5) For statistical analysis, values of physiological (SBP, DBP, HR, and T) and subjective effects (VAS, ARCI, and VESSPA-SSE) were baseline–adjusted. Maximum effects (Emax) and the time needed to reach maximum effects (Tmax) were determined, and the area under the curve up to 5 h (AUC0–5h) for clephedrone and up to 6 h (AUC0–6h) for methylone was calculated using the trapezoidal rule. Emax and AUC values are presented as mean ± standard deviation, whereas Tmax is presented in median (range).
# (§6) To find possible significant changes through the time course compared to baseline, a Dunnett multiple comparison test was carried out to compare each time point with baseline in both drug conditions. For clephedrone the comparisons were 0–0.5 h, 0–1 h, 0–1.5 h, 0–2 h, 0–3 h, 0–4 h and 0–5 h, and for methylone this analysis included 0–0.25 h, 0–0.5 h, 0–0.75 h, 0–1 h, 0–1.5 h, 0–2 h, 0–3 h, 0–4 h and 0–6 h. Given their different study designs, no comparative analysis between the time courses of both synthetic cathinones was conducted.
# healthy volunteers [2] = assay: Subjective effects, VESSPA-SSE, clephedrone study; format: in vivo, humans; conditions: 100 or 150 mg oral, n=8
# From the text: as §1, §2, §3
# The VESSPA-SSE questionnaire, used to evaluate the subjective effects of stimulant drugs, The questionnaire includes 36-items and consists of six subscales that measure sedation (S), psychosomatic anxiety (ANX), changes in perception (CP), pleasure and sociability (SOC), activity and energy (ACT), and psychotic symptoms (PS).
# as §4, §5, §6
# [3] = Oral fluid concentrations of clephedrone (GC-MS/MS); format: in vivo, humans; conditions: both sexes, human, 100 or 150 mg oral
# Procedure: as §2
# (§7) In both studies, oral fluid samples for the quantification of clephedrone and methylone concentration were collected using Salivette standard tubes. For clephedrone, oral fluid samples were collected at baseline, 0.50, 1, 1.5, 2, 3, 4, and 5 h, whereas for methylone, they were collected at baseline, 0.25, 0.50, 0.75, 1, 1.5, 2, 3, 4, 6, 8, and 10 h. After collection, all samples were centrifuged and stored frozen at −20 °C until analysis. Clephedrone oral fluid concentrations were determined using a previously validated gas chromatography coupled to mass spectrometry systems (GC-MS/MS). Methylone was quantified via liquid chromatography–tandem mass spectrometry (LC–MS/MS).
# (§8) For oral fluid concentrations of clephedrone and methylone, only a descriptive analysis was performed to obtain the main pharmacokinetics data, including the maximum concentration (Cmax), the time required to reach maximum concentrations (Tmax), and AUC up to 5 h (AUC0–5h) for clephedrone and up to 6 h (AUC0–6h) for methylone. These parameters were calculated using the Pharmacokinetic Functions for Microsoft Excel (Joel Usansky, Atul Desai, and Diane Tang-Liu, Department of Pharmacokinetics and Drug Metabolism, Allergan, Irvine, CA, USA). Oral cortisol concentrations after clephedrone were analyzed using Dunnett’s multiple comparison test (each time point with baseline).
# [4] = Oral fluid concentrations of methylone (LC-MS/MS); format: in vivo, humans; conditions: 150 or 200 mg oral
# Procedure: Methylone pharmacology was evaluated in a study designed as a randomized, double-blind, placebo-controlled, crossover clinical trial. Four pilot studies were conducted administering methylone at oral doses of 50 (n = 3), 100 (n = 6), 150 (n = 5), and 200 mg (n = 7). Participants attended 3 experimental sessions separated by a one-week wash-out period and received two doses of methylone (one dose per experimental session) compared to placebo, except in the last pilot study in which participants received one dose of methylone, compared to MDMA and placebo. However, in this manuscript, only the results corresponding to the highest methylone doses (n = 12; 150 and 200 mg; mean dose = 179.2 mg) are presented, to enable comparison with clephedrone self-administration. Participants were recruited by word of mouth in the volunteer database of the clinical pharmacology unit.
# as §7
# as §8, with “Oral cortisol concentrations after clephedrone were analyzed using Dunnett’s multiple comparison test (each time point with baseline).” left out
# [5] = cited from earlier work
structure (smiles),measurement,setting,value
"CNC(C)C(=O)c1ccc(Cl)cc1 (stereo not drawn) [Clephedrone, 4-chloromethcathinone]",ARCI A (amphetamine-like effects) Emax,healthy volunteers [1],5.88 ± 0.99 points
same,ARCI BG (intellectual efficiency) Emax,healthy volunteers [1],4.13 ± 0.99 points
same,ARCI LSD (dysphoria) Emax,healthy volunteers [1],1.25 ± 2.19 points
same,ARCI MBG (euphoria) Emax,healthy volunteers [1],12.13 ± 2.03 points
same,ARCI PCAG (sedation) Emax,healthy volunteers [1],0.88 ± 4.19 points
same,ARCI A (amphetamine-like effects) AUC0-5/6 h,healthy volunteers [1]; AUC0–5h,18.75 ± 3.54 points·h
same,ARCI BG (intellectual efficiency) AUC0-5/6 h,healthy volunteers [1]; AUC0–5h,10.56 ± 5.30 points·h
same,ARCI LSD (dysphoria) AUC0-5/6 h,healthy volunteers [1]; AUC0–5h,1.81 ± 4.39 points·h
same,ARCI MBG (euphoria) AUC0-5/6 h,healthy volunteers [1]; AUC0–5h,37.56 ± 11.83 points·h
same,ARCI PCAG (sedation) AUC0-5/6 h,healthy volunteers [1]; AUC0–5h,–3.31 ± 5.44 points·h
same,VESSPA ANX (psychosomatic anxiety) Emax,healthy volunteers [2],1.33 ± 0.45 points
same,VESSPA CP (changes in perception) Emax,healthy volunteers [2],0.02 ± 0.06 points
same,VESSPA CP (changes in perception) Tmax,healthy volunteers [2],0.0 (0.0–1.0) h
same,VESSPA S (sedation) Emax,healthy volunteers [2],0.90 ± 0.73 points
same,VESSPA SOC (pleasure and sociability) Emax,healthy volunteers [2],2.85 ± 0.47 points
same,VESSPA-ACT (activity and energy) Emax,healthy volunteers [2],2.52 ± 0.46 points
same,VESSPA-PS (psychotic symptoms) Emax,healthy volunteers [2],0.38 ± 0.50 points
same,VESSPA ANX (psychosomatic anxiety) AUC0-5/6 h,healthy volunteers [2]; AUC0–5h,3.01 ± 0.95 points·h
same,VESSPA CP (changes in perception) AUC0-5/6 h,healthy volunteers [2]; AUC0–5h,0.06 ± 0.18 points·h
same,VESSPA S (sedation) AUC0-5/6 h,healthy volunteers [2]; AUC0–5h,1.69 ± 1.43 points·h
same,VESSPA SOC (pleasure and sociability) AUC0-5/6 h,healthy volunteers [2]; AUC0–5h,7.74 ± 3.00 points·h
same,VESSPA-ACT (activity and energy) AUC0-5/6 h,healthy volunteers [2]; AUC0–5h,5.93 ± 2.65 points·h
same,VESSPA-PS (psychotic symptoms) AUC0-5/6 h,healthy volunteers [2]; AUC0–5h,1.15 ± 2.02 points·h
same,Cmax,[3]; n=8,6410 ± 3490 ng/mL
same,Tmax,[3]; n=8,3 h
same,AUC(0-t),"[3]; n=8, read-out: Oral fluid AUC0–5 h",10700 ng·h/mL
"CNC(C)C(=O)c1ccc2c(c1)OCO2 (stereo not drawn) [Methylone, 3,4-methylenedioxy-N-methylcathinone]","Oral fluid concentration at 6 h, times lower than Cmax",[4]; 6 h,11 times
same,Cmax,"[4]; human, oral fluid, n=12",17200 ng/mL
same,AUC(0-t),"[4]; human, oral fluid, n=12, read-out: Oral fluid AUC0–6 h",44700 ng·h/mL
same,Tmax in plasma,[5],2 h
